From patent publication US20190269666A1, “COMBINATION THERAPY WITH MERESTINIB AND ANTI-PD-L1 OR ANTI-PD-1 INHIBITORS FOR USE IN THE TREATMENT OF CANCER” (Eli Lilly and Company, priority 2016, published 2019) come the findings set out here.

This experiment deals with 80-murine immune gene panel (mRNA expression) in CT26 tumors. In words: Immuno-landscape analysis, QuantiGene mu-80 immune gene panel on CT26 tumors. The experiment is classed as in vivo, mouse. As to conditions: for Log2 (difference to vehicle control): CT26 tumors, Day 20. As to the method: Frozen tumor fragments of the samples collected on study Day 20 from 5 animals from each treatment arm (study S010516) are analyzed for gene expression of 80 markers using the Quantigene murine-80 panel (mu-80 immune panel #21681). Total RNA was isolated from lysed samples using the MAGMAX™ 96 Total RNA isolation kit (Life Technologies). Snap-frozen tumor fragments are lysed by adding 500 μL, of prepared lysis/binding buffer (MAGMAX™ 96 Total RNA isolation kit) with a single stainless steel bead (5 mm) and then homogenized on a TissueLyser (Qiagen) for 2 minutes at 25 Hz. 200 μL of lysate, along with 120 μL of 100% isopropanol and 40 μL of prepared magnetic beads mix are then transferred to a 96 deep well processing plate. A series of washes and a DNase incubation step are processed on the MAGMAX™ Express-96 Deep Well Magnetic Particle Processor (Life Technologies). RNA is eluted from the magnetic beads with […] of elution buffer after a final wash step. RNA concentration is determined spectrophotometrically to determine optical density at 260 and 280 nm and is then diluted to the final concentration of 25 ng/μl. Tissue expression of immune related genes is then measured using a QuantiGene® 2.0 Plex assay (Affymetrix) with a custom probe set (mu-80 immune panel #21681, Table 6). Four house-keeping-genes (HKG: Gusb, Hprt1, Ppib, Rps18) are used to normalize the gene expression data. Data are normalized and curated using the Genepattern script v28.8. Statistics and bioinformatics are used to analyze the data.
Five hundred ng of total RNA from samples being analyzed is added in duplicate to individual wells of a 96-well hybridization plate containing QuantiGene® magnetic capture beads, QuantiGene® probeset #21681, and QuantiGene® blocking reagent for a final volume of 100 μL. The hybridization plate is then sealed and incubated at 54° C. while agitated at 600 rpm for 16 hours. Samples are then transferred to a 96-well assay plate and beads are then sequentially hybridized first with 100 μl of QuantiGene® Pre-Amplifier Probe, then with QuantiGene® Amplifier Probe, and finally with QuantiGene® Label Probe (1 hour at 50° C. for each step, with 2-3 washes between each step using a magnetic capture plate). Streptavidin-conjugated R-Phycoerythrin (SAPE, Affymetrix) is added after the last hybridization step and incubated for 30 minutes at room temperature with agitation at 600 rpm. Samples are then analyzed on the FLEXMAP 3D® Luminex instrument (Luminex Corp). Beads (mRNA target) are identified with a red laser while the level of RNA is determined by measuring the mean fluorescence intensity (MFI) of Phycoerythrin with a green laser. Raw MFI data are then converted into relative gene expression for each gene (Normalized Adjusted Net MFI, background subtracted and normalized to 4 housekeeping genes), using a quality control analysis script with GenePattern (Broad Institute). […] Next, the lower limit of detection (LLOD) is determined (average background MFI+3 standard deviation (SD)). […] Relative gene expression is then calculated by normalizing for each gene's adjusted net MFI to the geometric mean of the MFI of selected housekeeping genes (HKG) including Hprt1, Gusb, Rps18 and Ppib, as shown in Table 6: (Sample Adjusted Net MFI/geometric mean Adjusted Net HKG MFI) multiplied by a scaling factor of 100. […]

Turning to `Cc1ccc(C(=O)Nc2ccc(Oc3cc4cnn(C)c4cc3-c3cn[nH]c3)c(F)c2)c(=O)n1-c1ccc(F)cc1` [merestinib, N-(3-fluoro-4-(1-methyl-6-(1H-pyrazol-4-yl)-1H-indazol-5-yloxy)phenyl)-1-(4-fluorophenyl)-6-methyl-2-oxo-1,2-dihydropyridine-3-carboxamide], the “Log2 (difference to vehicle control)” value (gene Cdh1) turned out to be 1.01; the “Log2 (difference to vehicle control)” value (gene Cdh1, listed as Merestinib alone) is 1.0; the “Log2 (difference to vehicle control)” value (gene Tnfrsf) was 0.8. For the same compound, the “number of immune genes with no significant change vs vehicle control” value (of an 80-immune gene panel) is reported as 79. Further, the “number of immune genes significantly different from vehicle control” value (of the 80 immune genes measured, tumors Day 20) is 1.
